# Assay results published in PubChem BioAssay AID328 (DTP/NCI, 2004).
# Values joined by “and” are separate entries in the source; they are usually repeats but may differ in a detail not shown here. Equal entries are not always repeated. Toxic doses and inconclusive results are not listed.
# Test system: BDF1 mice, P388 leukemia ip, median survival T/C
# Experiment: NCI In Vivo Anticancer Drug Screen. Data for tumor model P388 Leukemia (intraperitoneal) in B6D2F1 (BDF1) mice
# Details: endpoint: median survival time, higher = longer survival
# Summary of the method: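 Vehicle-dosed animals serve as the reference; survival of compound-dosed, tumour-implanted mice is divided by it.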
# [1] = dose: 50.0 mg/kg/injection, schedule: Q01DX009 (ip), vehicle: Klucel (hydroxypropylcellulose) (HPC)
# [2] = dose: 100.0 mg/kg/injection, schedule: Q01DX009 (ip), vehicle: Klucel (hydroxypropylcellulose) (HPC)
# [3] = dose: 100.0 mg/kg/injection, schedule: Q04DX003 (ip), vehicle: saline with Tween-80
# [4] = dose: 200.0 mg/kg/injection, schedule: Q01DX009 (ip), vehicle: Klucel (hydroxypropylcellulose) (HPC)
# [5] = dose: 200.0 mg/kg/injection, schedule: Q04DX003 (ip), vehicle: saline with Tween-80
# [6] = dose: 400.0 mg/kg/injection, schedule: Q04DX003 (ip), vehicle: saline with Tween-80
# [7] = dose: 100.0 mg/kg/injection, schedule: Q04DX003 (ip), vehicle: saline
# [8] = dose: 200.0 mg/kg/injection, schedule: Q04DX003 (ip), vehicle: saline
# [9] = dose: 100.0 mg/kg/injection, schedule: Q04DX003 (ip), vehicle: Klucel (hydroxypropylcellulose) (HPC)
# [10] = dose: 200.0 mg/kg/injection, schedule: Q04DX003 (ip), vehicle: Klucel (hydroxypropylcellulose) (HPC)
# [11] = dose: 400.0 mg/kg/injection, schedule: Q04DX003 (ip), vehicle: Klucel (hydroxypropylcellulose) (HPC)
# [12] = dose: 50.0 mg/kg/injection, schedule: Q01DX009 (ip), vehicle: saline with Tween-80
# [13] = dose: 200.0 mg/kg/injection, schedule: Q01DX009 (ip), vehicle: saline with Tween-80
# [14] = dose: 100.0 mg/kg/injection, schedule: Q01DX009 (ip), vehicle: saline
# [15] = dose: 200.0 mg/kg/injection, schedule: Q01DX009 (ip), vehicle: saline
# [16] = dose: 400.0 mg/kg/injection, schedule: Q01DX009 (ip), vehicle: saline
smiles,measurement,setting,value
O=C(CC(NC(=O)OCc1ccccc1)C(=O)O)OCc1ccccc1 (stereo unspecified),T/C,[1],122 % of control
same,T/C,[2],111 % of control
same,T/C,[3],104 % of control
same,T/C,[4],111 % of control
same,T/C,[5],100 % of control
same,T/C,"dose: 264.0 mg/kg/injection, schedule: Q04DX003 (ip), vehicle: saline with Tween-80",100 % of control
same,T/C,"dose: 400.0 mg/kg/injection, schedule: Q01DX009 (ip), vehicle: Klucel (hydroxypropylcellulose) (HPC)",94 % of control
same,T/C,[6],100 % of control and 109 % of control
CN(C)C(CCc1ccccc1)C(=O)O (stereo unspecified),T/C,[7],100 % of control
same,T/C,[8],104 % of control
Cc1c(Cl)cccc1NC(=O)c1ccccc1C(=O)O,T/C,[9],91 % of control
same,T/C,[10],95 % of control
same,T/C,[11],100 % of control
O=[N+]([O-])c1ccc(C2OC2c2ccccc2)cc1 (stereo unspecified),T/C,[1],122 % of control
same,T/C,[2],111 % of control
same,T/C,[9],95 % of control and 120 % of control
same,T/C,[4],111 % of control
same,T/C,[10],110 % of control
same,T/C,[11],91 % of control and 110 % of control
CCN(CC)CCNc1ccc(CO)c2sc3ccc(O)cc3c(=O)c12,T/C,"dose: 9.88 mg/kg/injection, schedule: Q04DX002 (ip), vehicle: saline with Tween-80",163 % of control
same,T/C,"dose: 18.75 mg/kg/injection, schedule: Q04DX002 (ip), vehicle: saline with Tween-80",207 % of control
same,T/C,"dose: 37.5 mg/kg/injection, schedule: Q04DX002 (ip), vehicle: saline with Tween-80",179 % of control
same,T/C,"dose: 75.0 mg/kg/injection, schedule: Q04DX002 (ip), vehicle: saline with Tween-80",207 % of control
NC(=S)N/N=C\c1ncnc2ccccc12,T/C,"dose: 8.0 mg/kg/injection, schedule: Q01DX009 (ip), vehicle: saline with Tween-80",150 % of control
same,T/C,"dose: 12.0 mg/kg/injection, schedule: Q01DX009 (ip), vehicle: saline with Tween-80",150 % of control
same,T/C,"dose: 18.0 mg/kg/injection, schedule: Q01DX009 (ip), vehicle: saline with Tween-80",150 % of control
COc1cc(OC)c(NC(=O)c2ccc([N+](=O)[O-])s2)cc1Cl,T/C,"dose: 25.0 mg/kg/injection, schedule: Q01DX005 (ip), vehicle: saline",102 % of control
same,T/C,"dose: 50.0 mg/kg/injection, schedule: Q01DX005 (ip), vehicle: saline",89 % of control
c1ccc(CN2C3Oc4ccccc4C2Oc2ccccc23)cc1,T/C,[12],94 % of control
same,T/C,[13],87 % of control
O=NN(CCCl)C(=O)N[C@@H]1CCCC[C@H]1NC(=O)N(CCCl)N=O,T/C,"dose: 0.12 mg/kg/injection, schedule: Q04DX003 (ip), vehicle: Klucel (hydroxypropylcellulose) (HPC)",120 % of control
same,T/C,"dose: 0.18 mg/kg/injection, schedule: Q01DX009 (ip), vehicle: Klucel (hydroxypropylcellulose) (HPC)",100 % of control
same,T/C,"dose: 0.25 mg/kg/injection, schedule: Q04DX003 (ip), vehicle: Klucel (hydroxypropylcellulose) (HPC)",100 % of control
same,T/C,"dose: 0.37 mg/kg/injection, schedule: Q01DX009 (ip), vehicle: Klucel (hydroxypropylcellulose) (HPC)",88 % of control
same,T/C,"dose: 0.5 mg/kg/injection, schedule: Q04DX003 (ip), vehicle: Klucel (hydroxypropylcellulose) (HPC)",108 % of control
same,T/C,"dose: 0.75 mg/kg/injection, schedule: Q01DX009 (ip), vehicle: Klucel (hydroxypropylcellulose) (HPC)",88 % of control
same,T/C,"dose: 1.0 mg/kg/injection, schedule: Q04DX003 (ip), vehicle: Klucel (hydroxypropylcellulose) (HPC)",150 % of control
same,T/C,"dose: 1.5 mg/kg/injection, schedule: Q01DX009 (ip), vehicle: Klucel (hydroxypropylcellulose) (HPC)",88 % of control
same,T/C,"dose: 2.0 mg/kg/injection, schedule: Q04DX003 (ip), vehicle: Klucel (hydroxypropylcellulose) (HPC)",113 % of control
same,T/C,"dose: 3.0 mg/kg/injection, schedule: Q04DX003 (ip), vehicle: Klucel (hydroxypropylcellulose) (HPC)",109 % of control
same,T/C,"dose: 4.5 mg/kg/injection, schedule: Q01DX009 (ip), vehicle: Klucel (hydroxypropylcellulose) (HPC)",191 % of control
same,T/C,"dose: 6.0 mg/kg/injection, schedule: Q01DX009 (ip), vehicle: Klucel (hydroxypropylcellulose) (HPC)",172 % of control
same,T/C,"dose: 6.0 mg/kg/injection, schedule: Q04DX003 (ip), vehicle: Klucel (hydroxypropylcellulose) (HPC)",150 % of control and 162 % of control and 172 % of control
same,T/C,"dose: 7.0 mg/kg/injection, schedule: Q01DX009 (ip), vehicle: Klucel (hydroxypropylcellulose) (HPC)",233 % of control
same,T/C,"dose: 9.0 mg/kg/injection, schedule: Q04DX003 (ip), vehicle: Klucel (hydroxypropylcellulose) (HPC)",213 % of control
same,T/C,"dose: 11.0 mg/kg/injection, schedule: Q01DX009 (ip), vehicle: Klucel (hydroxypropylcellulose) (HPC)",237 % of control and 250 % of control
same,T/C,"dose: 12.0 mg/kg/injection, schedule: Q01DX009 (ip), vehicle: Klucel (hydroxypropylcellulose) (HPC)",250 % of control
same,T/C,"dose: 12.0 mg/kg/injection, schedule: Q04DX003 (ip), vehicle: Klucel (hydroxypropylcellulose) (HPC)",159 % of control
same,T/C,"dose: 12.5 mg/kg/injection, schedule: Q01DX009 (ip), vehicle: Klucel (hydroxypropylcellulose) (HPC)",155 % of control
same,T/C,"dose: 13.0 mg/kg/injection, schedule: Q04DX003 (ip), vehicle: Klucel (hydroxypropylcellulose) (HPC)",250 % of control and 204 % of control
same,T/C,"dose: 16.5 mg/kg/injection, schedule: Q01DX009 (ip), vehicle: Klucel (hydroxypropylcellulose) (HPC)",250 % of control
same,T/C,"dose: 20.0 mg/kg/injection, schedule: Q04DX003 (ip), vehicle: Klucel (hydroxypropylcellulose) (HPC)",260 % of control and 272 % of control
same,T/C,"dose: 25.0 mg/kg/injection, schedule: Q01DX009 (ip), vehicle: Klucel (hydroxypropylcellulose) (HPC)",272 % of control and 280 % of control
same,T/C,"dose: 25.0 mg/kg/injection, schedule: Q01DX009 (ip), vehicle: saline",250 % of control
same,T/C,"dose: 25.0 mg/kg/injection, schedule: Q04DX003 (ip), vehicle: Klucel (hydroxypropylcellulose) (HPC)",222 % of control
same,T/C,"dose: 30.0 mg/kg/injection, schedule: Q04DX003 (ip), vehicle: Klucel (hydroxypropylcellulose) (HPC)",250 % of control and 272 % of control and 300 % of control
same,T/C,"dose: 35.0 mg/kg/injection, schedule: Q01DX009 (ip), vehicle: saline",91 % of control
same,T/C,"dose: 40.0 mg/kg/injection, schedule: Q04DX003 (ip), vehicle: Klucel (hydroxypropylcellulose) (HPC)",300 % of control
same,T/C,"dose: 44.0 mg/kg/injection, schedule: Q04DX003 (ip), vehicle: Klucel (hydroxypropylcellulose) (HPC)",250 % of control
same,T/C,"dose: 50.0 mg/kg/injection, schedule: Q04DX003 (ip), vehicle: Klucel (hydroxypropylcellulose) (HPC)",272 % of control
same,T/C,"dose: 67.0 mg/kg/injection, schedule: Q04DX003 (ip), vehicle: Klucel (hydroxypropylcellulose) (HPC)",241 % of control and 250 % of control and 300 % of control
same,T/C,[9],260 % of control and 150 % of control and 195 % of control
same,T/C,"dose: 150.0 mg/kg/injection, schedule: Q04DX003 (ip), vehicle: Klucel (hydroxypropylcellulose) (HPC)",95 % of control
same,T/C,[10],86 % of control and 122 % of control
O=[N+]([O-])c1ccc(S(=O)(=O)c2ccccc2)c2c1no[n+]2[O-],T/C,"dose: 10.0 mg/kg/injection, schedule: Q01DX009 (ip), vehicle: saline with Tween-80",109 % of control
same,T/C,"dose: 20.0 mg/kg/injection, schedule: Q01DX009 (ip), vehicle: saline with Tween-80",106 % of control
same,T/C,"dose: 40.0 mg/kg/injection, schedule: Q01DX009 (ip), vehicle: saline with Tween-80",106 % of control
O=C(Cn1cc(F)c(=O)[nH]c1=O)c1ccc(Cl)s1,T/C,[12],105 % of control
same,T/C,"dose: 100.0 mg/kg/injection, schedule: Q01DX009 (ip), vehicle: saline with Tween-80",96 % of control
same,T/C,[3],94 % of control
same,T/C,[13],103 % of control
same,T/C,[5],101 % of control
same,T/C,"dose: 400.0 mg/kg/injection, schedule: Q01DX009 (ip), vehicle: saline with Tween-80",103 % of control
same,T/C,[6],102 % of control
COc1ccc(CN(CCO)C(C)=O)cc1,T/C,[14],102 % of control
same,T/C,[7],100 % of control
same,T/C,[15],109 % of control
same,T/C,[8],100 % of control
same,T/C,[16],115 % of control
same,T/C,"dose: 400.0 mg/kg/injection, schedule: Q04DX003 (ip), vehicle: saline",95 % of control
CC(=O)Oc1ccc(OC(C)=O)c2c1CC(C)=C(C)C2,T/C,"dose: 50.0 mg/kg/injection, schedule: Q01DX009 (ip), vehicle: saline",107 % of control
same,T/C,[14],113 % of control
same,T/C,[7],109 % of control
same,T/C,[15],109 % of control
same,T/C,[8],116 % of control
same,T/C,[16],118 % of control
